Source: US20220041641A1, “QUATERNARY AMMONIUM SALTS AS INHIBITORS OF TRIMETHYLAMINE PRODUCTION” (Senda Biosciences, Inc., priority 2018, published 2022)

Tests used:
[1] = target: CutC from Proteus mirabilis (Proteus mirabilis, UniProt B4EYG1); experiment: Cell-based assay for TMA production from a native producer (P. mirabilis); conditions: d9-TMA from 1 mM d9-choline, 5 h, 37° C.; value 10 given when no fit or % TMA remaining at 10 μM higher than 15%; read-out: Average IC50 Whole cell P. mirabilis
CutC from Proteus mirabilis, sequence (B4EYG1 entry or part of it): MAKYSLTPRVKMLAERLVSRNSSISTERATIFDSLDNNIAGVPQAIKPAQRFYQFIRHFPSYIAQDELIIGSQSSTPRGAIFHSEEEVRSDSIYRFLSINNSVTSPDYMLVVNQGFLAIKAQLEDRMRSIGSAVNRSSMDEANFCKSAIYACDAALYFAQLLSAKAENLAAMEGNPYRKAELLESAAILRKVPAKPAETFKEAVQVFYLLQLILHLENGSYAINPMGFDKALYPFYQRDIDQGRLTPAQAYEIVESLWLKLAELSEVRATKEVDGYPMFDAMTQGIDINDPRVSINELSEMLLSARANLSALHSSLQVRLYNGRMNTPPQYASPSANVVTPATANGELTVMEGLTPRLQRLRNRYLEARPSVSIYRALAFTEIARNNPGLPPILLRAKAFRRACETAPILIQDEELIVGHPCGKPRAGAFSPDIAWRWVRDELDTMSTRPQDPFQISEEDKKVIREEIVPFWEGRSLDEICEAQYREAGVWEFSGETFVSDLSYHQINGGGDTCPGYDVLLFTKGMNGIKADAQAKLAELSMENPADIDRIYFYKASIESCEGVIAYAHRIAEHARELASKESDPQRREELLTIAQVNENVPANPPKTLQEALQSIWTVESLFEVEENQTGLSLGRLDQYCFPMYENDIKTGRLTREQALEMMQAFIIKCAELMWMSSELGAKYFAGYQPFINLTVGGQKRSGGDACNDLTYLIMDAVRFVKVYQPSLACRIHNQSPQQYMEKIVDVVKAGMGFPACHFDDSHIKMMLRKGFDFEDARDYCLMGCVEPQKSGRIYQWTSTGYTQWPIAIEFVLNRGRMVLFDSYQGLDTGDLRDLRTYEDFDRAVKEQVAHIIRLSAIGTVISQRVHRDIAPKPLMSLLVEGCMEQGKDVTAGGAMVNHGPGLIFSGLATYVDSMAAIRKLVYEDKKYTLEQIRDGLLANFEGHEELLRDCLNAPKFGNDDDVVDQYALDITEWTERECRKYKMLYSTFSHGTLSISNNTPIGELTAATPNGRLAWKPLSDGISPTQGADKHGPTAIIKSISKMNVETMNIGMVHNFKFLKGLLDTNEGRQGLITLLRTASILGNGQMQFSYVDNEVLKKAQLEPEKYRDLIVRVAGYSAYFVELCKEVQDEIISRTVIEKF
CutC from Proteus mirabilis, sequence (B4EYG0 entry or part of it, further chain): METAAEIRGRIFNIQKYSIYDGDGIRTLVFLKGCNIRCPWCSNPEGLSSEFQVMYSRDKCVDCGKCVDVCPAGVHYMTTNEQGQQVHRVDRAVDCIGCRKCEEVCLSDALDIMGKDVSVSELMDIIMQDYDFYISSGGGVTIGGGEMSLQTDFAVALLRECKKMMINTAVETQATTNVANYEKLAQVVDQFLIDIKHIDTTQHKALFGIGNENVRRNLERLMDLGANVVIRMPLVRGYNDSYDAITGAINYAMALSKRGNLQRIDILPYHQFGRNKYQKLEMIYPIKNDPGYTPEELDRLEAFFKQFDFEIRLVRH
Procedure, shortened: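 Overnight anaerobic cultures of P. mirabilis or C. sporogenes, grown in BHI with 1 mM choline, were diluted and given 1 mM (trimethyl-d9)-choline plus compound at 10 μM final. After 5 h at 37° C., d9-TMA was quantified by LCMS.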

[2] = Pharmacokinetic study of colon contents and plasma after oral dose of conjugate; assay type: in vivo, male C57B3L/6 mice; conditions: mouse, in vivo, po
Procedure: To confirm that the active agent component of the conjugate is released in the gastrointestinal tract, a pharmacokinetic study was conducted in male C57B3L/6 mice examining conjugate and active agent of concentrations in both the colon contents and plasma after oral dose of conjugate. Conjugate and active agent of were quantified by LCMS at 0 (pre-dose), 0.25, 0.5, 1, 2, 4, 6, 8, 12, and 24 hours post-dose of compound.

[3] = test system: enzymatic activity in fecal matter; experiment: Inhibition of enzymatic activity in fecal matter; assay type: cell-based; conditions: d9-choline 1 mM, 16 hours at 37° C., anaerobic, d9-TMA by LCMS
Procedure: Inhibition of enzymatic activity in fecal matter was determined by adding a substrate (d9-choline, 1 mM final concentration) and a compound in a range of concentrations in order to determine an IC50. After incubation for a designated 16 hours at 37° C. in anaerobic conditions, samples were be prepared for LCMS analysis, and the amount of d9-TMA produced was determined using LCMS analysis as in the Examples above.

[4] = in vivo; set-up: species or system Sprague-Dawley rats; conditions: Sprague-Dawley, rat
[5] = assay type: in vitro ADME; conditions: simulated gi fluid, 1 µM, pH 6.7
Procedure: This assay was used to assess the stability of a conjugate in a small intestine.
Phosphate buffer was prepared by dissolving 0.42 g of sodium hydroxide pellets and 3.95 g of monobasic sodium phosphate monohydrate and 6.19 g of sodium chloride in ultrapure water (MilliQ®, Millipore Sigma, Darmstadt, Germany). The pH was adjusted to 6.7 using aq. HCl and aq. NaOH, as necessary, and the solution was diluted with ultrapure water to produce 1 L of the pH 6.7 buffer.
112 mg FaSSIF powder (Biorelevant™, London, UK) was dissolved in 50 mL of the pH 6.7 buffer. 2 to 3 mL of the resulting solution were then added to 500 mg pancreatin (Millipore Sigma, Darmstadt, Germany). The resulting mixture was agitated by finger tapping the vessel containing the mixture until milky suspension formed. At this time, the remainder of the 50 mL FaSSiF/pH 6.7 buffer solution was added. The resulting suspension was flipped upside down 10 times to produce SIF, which was used fresh.
Test compounds were dissolved in DMSO stock to 1 mM. An aliquot of the DMSO stock solution was removed and diluted in the SIF media in 15 mL falcon tubes to produce a mixture with a tested compound concentration of 1 μM. A 1 mL aliquot was immediately removed and diluted once with 1 volume of acetonitrile for T0 timepoint. The mixture was sealed and agitated at 37° C. in an incubator. Aliquots (1 mL) were removed at regular intervals and immediately quenched by the addition of 1 volume of acetonitrile. The resulting samples were analyzed by LCMS to determine degradation rates.

**Q.** With `CC(=O)OC[C@H]1O[C@@H](OCC[N+](C)(C)C2CC2)[C@H](OC(C)=O)[C@@H](OC(C)=O)[C@@H]1OC(C)=O.[I-]` [Compound 80, N,N-dimethyl-N-(2-{[(3R,4S,5R,6R)-3,4,5-tris(acetyloxy)-6-[(acetyloxy)methyl]oxan-2-yl]oxy}ethyl)cyclopropanaminium Iodide] as the molecule, how does the IC50 [1] read?
**A.** ≥ 10000 nM

**Q.** What about the “Plasma Cmax” value [2] of the same molecule?
**A.** Not

**Q.** What about the IC50 [3] of the same molecule?
**A.** 380 nM

**Q.** What about the Cmax ([4]; iv, 1 mg/kg) of the same molecule?
**A.** 7.68 µM

**Q.** What about the “IV Cmax” value ([4]; iv, 1 mg/kg) of the same molecule?
**A.** 0 nM

**Q.** What about the “% F” value ([4]; po, 10 mg/kg) of the same molecule?
**A.** 1.5%

**Q.** And the bioavailability ([4]; po, 10 mg/kg)?
**A.** 0.68%

**Q.** And the “Assay 2- FaSSIF Stability: % Remaining at 4 hr” value [5]?
**A.** 99.34%
